These results are taken from publication PMC11487604, “Selective, Intrinsically Fluorescent Trk Modulating Probes” (ACS Chemical Neuroscience, 2024).

Read-outs that look alike come from different tables or passages of the source. *1 amine or outer side, *2 acyl side, *3 side chain or, on linkers, in order; H or OH if unused. Where a SMILES comes first, the peptide text is derived from it. Bridges are numbered along the chain shown (N, C = ends). X1 = COc1ccc(C2=C3C=C(S(=O)(=O)O)C([*:2])=[N+]3[B-](F)(F)n3c2cc(S(=O)(=O)O)c3[*:1])cc1; X2 = COc1ccc(C2=C3C=C(S(=O)(=O)O)C([*:1])=[N+]3[B-](F)(F)n3c2cc(S(=O)(=O)O)c3[*:2])cc1

The subject of one assay is TrkC. Particulars: cited from earlier work.
Assay [1] concerns primary adult cortical neurons. Put plainly: Primary adult cortical neuron assay (neurite outgrowth and survival). The class given is cell-based, mouse. The text has this: We next decided to test the effects of 5c(ii) on primary mouse adult cortical neurons. These neurons naturally express TrkA[84] and therefore provide a more clinically relevant substrate to test compound leads in than analogous Trk-expressing transfectants. In addition, using neurons extracted from adult mice provide increased relevance to neurodegenerative and other nervous-system related diseases and injury, since most of these primarily occur in adult populations.[85],[86] To determine any potential for preclinical applications, 5c(ii) (5 μM) was incubated with primary cortical neurons from 6-week-old male mice at the time of plating, and neuronal survival and neurite outgrowth were quantified.
Figure 7 5c(ii) promotes neuroprotection. Primary adult cortical neurons were extracted from 6-week-old male mice and plated on 384-well PDL-coated plastic bottom plates at 10,000 cells/well. 5c(ii) at 5 μM concentration was added at the time of plating. 48 h after plating, the cells were fixed to conduct immunocytochemistry. Graph represents the mean ± SEM of (a) total neurite outgrowth per cell and (b) number of valid neurons per well. Representative images of cortical neurons treated with (c) vehicle and (d) 5 μM 5c(ii). Student’s t test. N = 3–5. *p < 0.05.
Cortical neuron assay was conducted as previously described.[85] Briefly, wild-type 6-week-old C57Bl/6 male mice were euthanized using CO2, and the brains were removed. The cortex was isolated and transferred to a MACS C-tube and then dissociated using the Miltenyi gentleMACS octo-dissociator on a preset protocol designed for adult rodent brains. […] Images were quantified using the Neurite Outgrowth Analysis Module in MetaXpress 6 software (Molecular Devices). For quantification, the number of valid neurons is determined by quantifying the number of TUBB3^+/DAPI^+ cells in a well with ≥10 μm of total neurite outgrowth. Total neurite outgrowth is determined by dividing the length of all neurites in a well by the number of valid neurons in that respective well. […]

Another assay concerns p75. Particulars: cited from earlier work.
Assay [2] concerns the target TrkB-expressing cells (HEK+B) (UniProt Q16620). Put plainly: Cell survival assay in serum-free media, TrkB-expressing cells (HEK+B). The class given is cell-based. Particulars: for EC50: normalized to DMSO (0%) and 1.0 nM BDNF (100%). As to the method: Loop mimics 5 were screened in cell survival assays to evaluate their efficacy in stimulating Trk receptors (Figure 2). Mimics were assayed for the ability to rescue cells from cell death when incubated in serum-free media (SFM) in the absence of NTs (a test for “agonism”) or in the presence of a suboptimal NT concentration (a test for NT “modulation”). Simultaneously, these assays may confirm test mimics are not cytotoxic at lower doses (though cytotoxicity assays were also performed up to higher doses, Figure S1). […] All the test compounds were screened at 50 μM concentrations initially, and then, dose response curves were measured for the hits (Table 1 and Figure 3).
We were forced to use transfectants in different cell lines (HeLa, HEK-293, NIH-3T3 expressing TrkA, B, and C, respectively) due to difficulties in obtaining transfected cells derived from a single wild type; however, none of the cells used express TrkA-C prior to transfection. Throughout this paper, HeLa cells are denoted as “HeLa”, and their TrkA transfectants are “HeLa+A”. Similarly, HEK-293 cells are “HEK”; their TrkB transfectants are HEK+B. NIH-3T3 cells are “NIH”, and their TrkC transfectants are “NIH+C”.
Cells were seeded at a density of 2 × 10^3 cells/well in complete media in 96-well plates and incubated for 24 h to allow cells to adhere. Cells were washed with DPBS, and then, media were swapped for serum-free media of the same type as the complete media. Cells were then treated with 50 μM compound either alone or in conjunction with suboptimal neurotrophin corresponding to the Trk receptor expressed for 48 h. Cells were washed with DPBS buffer twice and detached from the plate with 50 μL of trypsin for 3 min at 37 °C. Trypsinization was quenched with 100 μL of complete media. Cells were suspended and live cells counted using flow cytometry (CytoFLEX LX). Cell survival was normalized from cell count (CC) readings relative to optimal neurotrophin (NT = 100%) and DMSO (0%) utilizing GraphPad Prism 10.2, followed by statistical analysis via one-way ANOVA and Dunnett’s t test compared to the DMSO control. Dose response versions of this assay were conducted following the same procedure, but the data was analyzed in GraphPad Prism 10.2 using the nonlinear fit: {agonist} vs response – variable slope (four parameters) function.

The target in a further assay is T1, TrkB (HEK293-TrkB cells) (Homo sapiens, UniProt Q16620).
T1 construct: expressed in transfected cells; host or cells: HEK293
Put plainly: Cell-surface fluorescence binding to live HEK293-TrkB cells. Particulars: HEK293-TrkB minus HEK293 wild-type fluorescence, 2.5 h. The text has this: Binding of the selective, intrinsically fluorescent mimics to cells can be observed and quantitated via fluorescence. Raw data includes fluorescence associated with material not removed in the washing step (sticky, nonselective binding), and if there were binding to any receptors other than Trk, then fluorescence would be observed for this too. In a second experiment, fluorescence associated with the wild-type cells without Trk expression was similarly recorded to provide a baseline correction representative of that nonselective binding, plus affinity to non-Trk receptors if that occurred. Consequently, fluorescence observed in the noncompetitive experiment minus that in the one using Trk-negative cell lines represents a minimum associated with binding to the expressed Trk receptor. […]
Trk-positive transfected cell lines (HeLa-TrkA, HEK293-TrkB, and NIH3T3-TrkC) and Trk-negative cell lines (HeLa, HEK293, and NIH3T3) were seeded at a density of 2 × 10^3 cells/well in 96-well plates and incubated for 24 h to allow them to adhere. […] Cell associated fluorescence was then determined by measuring emission of the resulting solution on a plate reader (BioTek Synergy H4 Hybrid Reader), λex (540/25 nm) and λem (620/40 nm). […]

On the set-up of assay [3]: method as in PMID 34451801. Particulars: lack of selectivity; cited from earlier work.
Assay [4] concerns the target TrkC-expressing cells (NIH+C) (UniProt Q16288). Nature of the assay: Cell survival assay in serum-free media, TrkC-expressing cells (NIH+C). The class given is cell-based. Particulars: Figure 8 summary. The method, then:
Loop mimics 5 were screened in cell survival assays to evaluate their efficacy in stimulating Trk receptors (Figure 2). Mimics were assayed for the ability to rescue cells from cell death when incubated in serum-free media (SFM) in the absence of NTs (a test for “agonism”) or in the presence of a suboptimal NT concentration (a test for NT “modulation”). Simultaneously, these assays may confirm test mimics are not cytotoxic at lower doses (though cytotoxicity assays were also performed up to higher doses, Figure S1). […] All the test compounds were screened at 50 μM concentrations initially, and then, dose response curves were measured for the hits (Table 1 and Figure 3). […]
Cells were seeded at a density of 2 × 10^3 cells/well in complete media in 96-well plates and incubated for 24 h to allow cells to adhere. […] Cells were suspended and live cells counted using flow cytometry (CytoFLEX LX). Cell survival was normalized from cell count (CC) readings relative to optimal neurotrophin (NT = 100%) and DMSO (0%) utilizing GraphPad Prism 10.2, followed by statistical analysis via one-way ANOVA and Dunnett’s t test compared to the DMSO control. Dose response versions of this assay were conducted following the same procedure, but the data was analyzed in GraphPad Prism 10.2 using the nonlinear fit: {agonist} vs response – variable slope (four parameters) function.

In assay [5] the target is TrkA-expressing cells (HeLa+A) (UniProt P04629). Nature of the assay: Cell survival assay in serum-free media, TrkA-expressing cells (HeLa+A). Format: cell-based. Particulars: Figure 8 summary.
TrkA-expressing cells (HeLa+A), sequence (P04629 33-796): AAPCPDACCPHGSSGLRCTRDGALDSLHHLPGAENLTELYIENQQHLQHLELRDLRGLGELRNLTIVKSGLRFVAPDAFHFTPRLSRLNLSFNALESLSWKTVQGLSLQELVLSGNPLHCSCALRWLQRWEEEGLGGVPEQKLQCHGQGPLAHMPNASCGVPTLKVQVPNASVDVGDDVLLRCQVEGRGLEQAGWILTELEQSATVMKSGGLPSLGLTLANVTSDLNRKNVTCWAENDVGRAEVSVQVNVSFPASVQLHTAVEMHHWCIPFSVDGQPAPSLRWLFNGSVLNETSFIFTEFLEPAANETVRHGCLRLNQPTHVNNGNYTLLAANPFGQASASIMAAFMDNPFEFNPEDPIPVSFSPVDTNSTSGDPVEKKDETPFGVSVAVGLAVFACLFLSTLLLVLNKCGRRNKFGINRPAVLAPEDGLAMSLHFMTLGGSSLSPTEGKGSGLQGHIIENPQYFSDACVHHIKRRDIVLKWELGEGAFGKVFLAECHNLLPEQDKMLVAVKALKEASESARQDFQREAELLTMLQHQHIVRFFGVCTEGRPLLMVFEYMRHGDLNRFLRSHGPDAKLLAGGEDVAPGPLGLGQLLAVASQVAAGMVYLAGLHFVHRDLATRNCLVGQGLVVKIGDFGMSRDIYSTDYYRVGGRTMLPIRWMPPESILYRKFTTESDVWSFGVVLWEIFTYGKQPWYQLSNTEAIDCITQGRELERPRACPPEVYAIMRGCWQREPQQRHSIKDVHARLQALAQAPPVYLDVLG
Description: Cells were seeded at a density of 2 × 10^3 cells/well in complete media in 96-well plates and incubated for 24 h to allow cells to adhere. Cells were washed with DPBS, and then, media were swapped for serum-free media of the same type as the complete media. […] Cells were suspended and live cells counted using flow cytometry (CytoFLEX LX).
Another assay deals with pAKT in NIH+C cells. Nature of the assay: ELFI, pAKT signaling in NIH+C cells, competition with NT. Format: cell-based. Particulars: competed with 10 ng/mL NT, 1 h. As to the method:
(§1) Throughout, the positive control was concentration-dependent treatment with the parent NT in half-log dilutions from 100 ng/mL to 0.1 ng/mL, and the negative control was to treat the cells with only DMSO. We first determined Z′ factors[83] based on these boundary controls. Once the assays had been validated (Z′ > 0.5), we determined optimal times to fix cells after treatment (taking into account potential differences in the kinetics of Trk activation between small molecules and neurotrophins), mimicked dose ranges, and then performed dose response studies.
(§2) Assays were conducted as previously reported.[36] Trk-positive cells (PC12, HEK293-TrkB, and NIH3T3-TrkC) were seeded at a density of 2 × 10^4 cells per well in poly-D-lysine (PDL)-coated 96-well white flat-bottomed plates and allowed to adhere for 24 h. Cells were washed once with SFM and then incubated for 1–2 h in SFM. A serial dilution of compound and/or NT was added, and the cells were incubated for 15 min (agonism experiments) or 1 h (antagonism). […] Cells were washed 6× with WB, and then, levels of phosphorylation were quantified using SuperSignal ELISA Pico Chemiluminescent Substrate (Thermo Scientific). […] IC50 is calculated for 5c(ii) using the {inhibitor} vs response – variable slope (four parameters) function in GraphPad Prism 10.2.

Assay [6] relates to pAKT in PC12 (TrkA+) cells. Nature of the assay: ELFI, pAKT signaling in PC12 cells, competition with NT. The class given is cell-based, rat. Particulars: competed with 10 ng/mL NT, 1 h. As to the method: as §1, §2
The subject of assay [7] is pMAPK in PC12 (TrkA+) cells. Nature of the assay: ELFI, pMAPK signaling in PC12 cells, competition with NT. Format: cell-based, rat. Particulars: competed with 10 ng/mL NT, 1 h. As to the method: as §1, §2
The next assay concerns pMAPK in NIH+C cells. Put plainly: ELFI, pMAPK signaling in NIH+C cells, competition with NT. Particulars: competed with 10 ng/mL NT, 1 h. The class given is cell-based. The method, then: as §1, §2

TrkB-expressing cells (HEK+B), sequence (Q16620 32-822): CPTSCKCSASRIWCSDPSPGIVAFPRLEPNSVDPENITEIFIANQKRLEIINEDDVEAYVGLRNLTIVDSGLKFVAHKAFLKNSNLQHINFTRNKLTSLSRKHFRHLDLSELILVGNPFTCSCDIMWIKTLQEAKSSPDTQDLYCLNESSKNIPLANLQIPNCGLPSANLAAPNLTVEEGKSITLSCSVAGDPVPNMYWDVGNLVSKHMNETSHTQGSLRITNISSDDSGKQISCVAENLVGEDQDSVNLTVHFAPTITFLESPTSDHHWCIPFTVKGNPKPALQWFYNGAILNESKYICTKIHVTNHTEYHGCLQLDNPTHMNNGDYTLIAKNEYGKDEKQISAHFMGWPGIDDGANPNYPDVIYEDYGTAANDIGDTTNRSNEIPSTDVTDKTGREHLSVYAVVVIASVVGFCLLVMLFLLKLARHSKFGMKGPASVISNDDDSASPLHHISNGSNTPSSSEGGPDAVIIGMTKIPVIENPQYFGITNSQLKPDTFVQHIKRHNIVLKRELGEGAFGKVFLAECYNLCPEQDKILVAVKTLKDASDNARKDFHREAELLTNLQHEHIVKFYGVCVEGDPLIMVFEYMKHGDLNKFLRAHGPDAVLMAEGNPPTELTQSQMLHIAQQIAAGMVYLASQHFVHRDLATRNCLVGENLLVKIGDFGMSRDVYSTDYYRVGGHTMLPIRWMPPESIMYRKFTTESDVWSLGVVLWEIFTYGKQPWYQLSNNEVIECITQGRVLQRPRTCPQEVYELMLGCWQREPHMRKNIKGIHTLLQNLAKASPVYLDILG
TrkC-expressing cells (NIH+C), sequence (Q16288 32-839): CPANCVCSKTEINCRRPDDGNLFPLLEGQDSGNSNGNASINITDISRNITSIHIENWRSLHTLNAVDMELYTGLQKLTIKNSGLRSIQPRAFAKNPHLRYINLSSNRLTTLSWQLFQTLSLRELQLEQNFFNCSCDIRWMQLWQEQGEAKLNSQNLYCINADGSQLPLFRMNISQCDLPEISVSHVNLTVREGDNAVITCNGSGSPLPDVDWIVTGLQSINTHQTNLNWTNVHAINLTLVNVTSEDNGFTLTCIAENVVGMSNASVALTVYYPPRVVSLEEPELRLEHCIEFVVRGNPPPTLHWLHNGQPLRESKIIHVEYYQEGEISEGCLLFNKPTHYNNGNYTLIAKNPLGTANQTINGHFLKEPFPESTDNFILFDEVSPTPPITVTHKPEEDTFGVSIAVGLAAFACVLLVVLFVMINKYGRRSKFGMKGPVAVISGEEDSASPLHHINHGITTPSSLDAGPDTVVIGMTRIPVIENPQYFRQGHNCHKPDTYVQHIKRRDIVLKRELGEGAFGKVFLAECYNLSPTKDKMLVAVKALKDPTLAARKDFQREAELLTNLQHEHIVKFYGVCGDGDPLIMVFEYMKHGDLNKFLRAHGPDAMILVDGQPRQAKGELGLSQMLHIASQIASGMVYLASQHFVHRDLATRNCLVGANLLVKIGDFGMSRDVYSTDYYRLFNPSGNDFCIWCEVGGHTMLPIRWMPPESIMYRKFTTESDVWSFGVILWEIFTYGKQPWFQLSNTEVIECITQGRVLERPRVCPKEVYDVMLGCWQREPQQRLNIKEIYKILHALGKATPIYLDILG

As for `NCCCC[C@@H]1NC(=O)[C@H](CCC(=O)O)NC(=O)c2cc([N+](=O)[O-])ccc2OCC[C@@H](C(=O)NCC(=O)O)NC1=O` [D3], the “binding to TrkC” value with TrkC is “does not bind”. In addition, the “effect in primary adult cortical neuron assay” value in [1] (data not shown) is on record as “no measurable effect”. In the assay on p75, the “binding to p75” value was “does not bind”.
Regarding `COc1ccc(C2=C3C=C(S(=O)(=O)O)C4=[N+]3[B-](F)(F)n3c2cc(S(=O)(=O)O)c3SC[C@@H](C(N)=O)NC(=O)CNC(=O)[C@H](CO)NC(=O)[C@H](CCSC)NC(=O)[C@H](CC(=O)O)NC(=O)[C@@H](NC(C)=O)CS4)cc1` [5b(i)] (Ac-CDMSGC-NH2; linker 1-6 via X2), the EC50 (in general, the midpoint of the concentration-response curve) in [2] (cell survival with 0.6 nM BDNF, read-out: EC50 (μM) with suboptimal neurotrophin) was 1.8 µM; in [2] (dose-dependent cell survival without NT, read-out: EC50), 0.4 µM. Also, the Kd (commonly the constant that tells how readily two partners part at equilibrium) at TrkB (HEK293-TrkB cells) was found to be 73 ± 13 nM.
Regarding `O=c1cc(-c2ccccc2)oc2c(O)c(O)ccc12` [7,8-DHF, 7,8-Dihydroxyflavone], in [3], the “number of targets bound” value was 133.
As to `CC[C@H](C)[C@@H]1NC(=O)[C@H](CC(=O)O)NC(=O)[C@@H](NC(C)=O)CSc2c(S(=O)(=O)O)cc3n2[B-](F)(F)[N+]2=C(SC[C@@H](C(N)=O)NC(=O)CNC(=O)[C@H](CCCNC(=N)N)NC1=O)C(S(=O)(=O)O)=CC2=C3c1ccc(OC)cc1` [5c(i)] (Ac-CDIRGC-NH2; linker 1-6 via X1; N-terminus and C-terminus assumed), the “result (Trk activity assigned)” value in [2] (Figure 8 summary) and in assay [4] was “TrkB/C agonist” each time.
In the case of `COc1ccc(C2=C3C=C(S(=O)(=O)O)C4=[N+]3[B-](F)(F)n3c2cc(S(=O)(=O)O)c3SC[C@H](NC(C)=O)C(=O)N[C@@H]([C@@H](C)O)C(=O)N[C@@H](CCC(N)=O)C(=O)N[C@@H](CC(N)=O)C(=O)N[C@@H](CO)C(=O)N[C@H](C(N)=O)CS4)cc1` [5c(ii)] (Ac-CTQNSC-NH2; linker 1-6 via X1; N-terminus and C-terminus assumed), the “result (Trk activity assigned)” value in assay [5] is “TrkA modulator”. The IC50 (as a rule, the concentration at which inhibition is half-maximal) was 7 µM in the assay on pAKT in NIH+C cells, 7 µM in assay [6], 7 µM in assay [7] and 35 µM in the assay with pMAPK in NIH+C cells. Moreover, in assay [1] (5 μM, 48 h, neurons from 6-week-old male mice), the “change in neurite outgrowth” value is “no significant change”. The “increase in the number of valid neurons” value in assay [1] (5 μM, after 48 h, neurons from 6-week-old male mice, vs vehicle) is on record as “over 50%”.
